The nature of data set [1]: Drug excretion in New Zealand white rabbit urine assessed as NSC-102816 equivalent excretion at 15 mg/kg, iv after 8 hrs by liquid scintillation counting. The class given is ADME, organism-based, Oryctolagus cuniculus. Also noted: dose 15 mg/kg, route intravenous. The following applies: in vivo.
The nature of data set [2]: Drug excretion in New Zealand white rabbit bile assessed as NSC-102816 equivalent excretion at 15 mg/kg, iv after 8 hrs by liquid scintillation counting. Further details: dose 15 mg/kg, route intravenous. The following applies: in vivo. The class given is ADME, organism-based, Oryctolagus cuniculus.

Turning to `N[14c]1ncn([C@@H]2O[C@H](CO)[C@@H](O)[C@H]2O)c(=O)n1`, the Drug excretion in data set [1] amounted to 35.3 %ID; in data set [2], 1 %ID.
The matching figures for `Nc1n[14cH]n([C@@H]2O[C@H](CO)[C@@H](O)[C@H]2O)c(=O)n1`: 2.53 %ID and 0.88 %ID.

These data come from ChEMBL document CHEMBL3244184, “Synthesis of 5-azacytidine-6-13C and -6-14C” (J Med Chem, 1977).
